Assay results reported in EP1137645B1, “ALPHA-METHYLBENZYL-CONTAINING THIOUREA INHIBITORS OF HERPES VIRUSES CONTAINING A […] GROUP” (Wyeth, priority 1998, dated 2000).
Converted amounts (≈) assume the structure as drawn. Read-outs that look alike come from different tables or passages of the source.

Columns and labels:
HSV- I = experiment: HSV antiviral (ELISA) assay; assay type: cell-based; conditions: read-out: IC50 (ug/ml) HSV
Procedure: Vero cells (ATCC #CCL-81) are plated on 96-well tissue culture plates at 3.5x10^4 cells per 100µl tissue culture DMEM (Dulbecco's modified Eagle media) supplemented with 2% fetal bovine serum (FBS) in each well. After overnight incubation @ 37°C (in 5% CO2) and 30 minutes prior to infection with HSV- I (multiplicity of infection equal to 0.006), cells are either untreated, or treated with test compound (multiple concentrations) or reference standard drug control. After approximately 24 hours post-infection incubation @ 37°C (in 5% CO2), cells are fixed for ELISA assay. The primary antibody is murine anti-HSV glycoprotein D monoclonal primary antibody and the secondary antibody is goat anti-mouse IgG linked to β-galactosidase. Thus the extent of viral replication is determined by assessing β-galactosidase activity by quantifying the generation of the 4-methyl umbelliferone fluorescent cleavage product after addition of the methyl umbelliferyl-β-D-galactoside (Sigma #M1633) substrate on a microfluorimeter (365nm for excitation and 450nm for emission). Antiviral activity (IC50) of the test compound is determined by comparing the flourescence obtained in absence of compound to that obtained in the presence of compound.

[1] = test system: HCMV recombinant mutant virus whose genome contains the prokaryotic beta-glucuronidase gene; experiment: microbe, parasite or virus in culture; assay type: cell-based, human cytomegalovirus; conditions: for IC50: Human betaherpesvirus 5, Fibroblast
Text: Microtiter plate assay. Ninety-six well plate cultures of human foreskin fibroblasts are infected in the presence of inhibitor compound with a HCMV recombinant mutant virus whose genome contains the prokaryotic beta-glucuronidase gene (Jefferson, R. A., S. M. Burgess, and D. Hirsh. 1986. Beta-glucuronidase from Escherichia coli as a gene fusion marker. Proc. Natl. Acad. Sci. USA 83:8447-8451) whose expression is controlled by a viral promoter. An example of such a virus is RV145 (Jones, T. R., V. P. Muzithras, and Y. Gluzman. 1991. Replacement mutagenesis of the human cytomegalovirus genome: US10 and US11 gene products are nonessential. J. Virol. 65:5860-5872). Since it is under the control of a viral promoter, beta-glucuronidase expression is an indirect indicator of growth and replication of HCMV in this assay. At 96 hours post-infection, the infected cell lysates are prepared (using 50mM sodium phosphate [pH7.0] containing 0.1% Triton X-100 and 0.1% sarkosyl) and assayed for beta-glucuronidase activity using a substrate for the enzyme which when cleaved yields either a product which can be measured colorimetrically in a spectrophotometer or fluorescently in a microfluorimeter. Examples of such substrates are p-nitrophenyl-beta-D-glucuronide and methylumbelliferylglucuronide, respectively. The presence of an antiviral compound is indicated by the reduced expression of the HCMV genome resident beta-glucuronidase gene, compared to the absence of inhibitor. […] Data from this assay generated using varying amounts of inhibitor compound is also used to estimate the IC50 of an inhibitor compound.

VZV strain Ellen = experiment: VZV antiviral (ELISA) assay; assay type: cell-based
Procedure: For the generation of stock VZV to be used in the assay, VZV strain Ellen (ATCC #VR-1367) is used to infect human foreskin fibroblast (HFF) cells at low multiplicity (less than 0.1) and incubated overnight at 37°C in 5% CO2. After the overnight incubation, the mixture of uninfected and VZV-infected HFF infected cells are then harvested and added to each well of 96-well plates (3.5x10^4 cells in 100 µl DMEM supplemented with 2% FBS) which contain test compound or the reference standard drug control (in 100µl DMEM supplemented with 2% FBS per well). These cells are incubated for three days at 37°C in 5% CO2, then fixed for ELISA assay. The primary antibody is murine anti-VZV glycoprotein II monoclonal antibody (Applied Biosystems, Inc. #13-145-100) and the secondary antibody is goat anti-mouse IgG linked to β-galactosidase. Thus the extent of viral replication is determined by assessing β-galactosidase activity by quantifying the generation of the 4-methyl umbelliferone fluorescent cleavage product after addition of the methyl umbelliferyl-β-D-galactoside (Sigma #M1633) substrate on a microfluorimeter (365nm for excitation and 450nm for emission). Antiviral activity (IC50) of the test compound is determined by comparing the flourescence obtained in absence of compound to that obtained in the presence of compound.

[2] = Human alphaherpesvirus 3, read-out: % inhibition 10 ug/ml VZV, 10 ug/ml, VZV strain Ellen, HFF cells, ELISA
[3] = Human alphaherpesvirus 3, VZV strain Ellen, HFF cells, ELISA, read-out: IC50 (ug/ml) VZV
[4] = read-out: IC50 ug/ml HCMV, HCMV, human foreskin fibroblasts
[5] = Human alphaherpesvirus 3, HFF, read-out: % inhibition 10 ug/ml VZV
[6] = Human alphaherpesvirus 3, HFF, read-out: IC50 (ug/ml) VZV
[7] = Human alphaherpesvirus 3, HFF, read-out: IC50 (ug/ml) VZV, VZV strain Ellen, HFF cells, ELISA

Structure (SMILES)	IC50 (HSV- I; HSV- I, Vero cells, ELISA)	IC50 ([1]; read-out: IC50 ug/ml HCMV)	inhibition at 10 µg/mL (VZV strain Ellen; [2])	IC50 (VZV strain Ellen; [3])	IC50 [1, 4]	inhibition at 10 µg/mL (VZV strain Ellen; [5])	IC50 (VZV strain Ellen; [6])	IC50 (HSV- I; Vero)	IC50 (VZV strain Ellen; [7])	IC50 ug/ml HCMV ([1]; HCMV, human foreskin fibroblasts)
NNC(=O)c1cccc(NC(=S)Nc2ccc(NC(=O)c3ccccc3F)cc2)c1 [Example 463, 2-Fluoro-N-{4-[3-(3-hydrazinocarbonyl-phenyl)-thioureido]-phenyl}-benzamide]	> 10 µg/mL	> 10 µg/mL	19%	> 10 µg/mL						
O=C(Nc1ccc(NC(=S)Nc2ccc3scnc3c2)cc1)c1ccccc1F [Example 484, N-[4-(3-Benzothiazol-5-yl-thioureido)-phenyl]-2-fluoro-benzamide]	0.4 µg/mL (≈ 0.947 µM)				> 10 µg/mL	28%	> 10 µg/mL			
CN(C)c1ccc(Cl)cc1NC(=S)Nc1ccc(NC(=O)c2ccccc2F)cc1 [Example 490, N-{4-[3-(5-Chloro-2-dimethylamino-phenyl)-thioureido]-phenyl}-2-fluoro-benzamide]	1 µg/mL (≈ 2.26 µM)				2.5 µg/mL (≈ 5.64 µM)	68%	> 10 µg/mL			
Nc1ccc(Cl)cc1NC(=S)Nc1ccc(NC(=O)c2ccccc2F)cc1 [Example 437, N-{4-[3-(2-Amino-5-chloro-phenyl)-thioureido]-phenyl}-2-fluoro-benzamide]					> 10 µg/mL	0%	8 µg/mL (≈ 19.3 µM)	0.05 µg/mL (≈ 0.121 µM)		
CC(NC(=S)Nc1ccc(NC(=O)c2ccccc2Cl)cc1)c1ccc(F)cc1 (centres unmarked) [Example 755, 2-Chloro-N-(4-{3-[1-(4-fluoro-phenyl)-ethyl]-thioureido}-phenyl)-benzamide]					> 10 µg/mL			> 10 µg/mL	7 µg/mL (≈ 16.4 µM)	
Cc1nc2cc(NC(=S)Nc3ccc(NC(=O)c4ccccc4F)cc3)ccc2[nH]1 [Example 497, 2-Fluoro-N-{4-[3-(2-methyl-1H-benzoimidazol-5-yl)-thioureido]-phenyl}-benzamide]	> 10 µg/mL	10 µg/mL (≈ 23.8 µM)	10%	> 10 µg/mL						
CN(C)CCSCC(=O)Nc1ccc(NC(=S)Nc2ccc(NC(=O)c3ccccc3F)cc2)cc1Cl [Example 373, N-[4-(3-{3-Chloro-4-[2-(2-dimethylamino-ethylsulfanyl)-acetylamino]-phenyl}-thioureido)-phenyl]-2-fluoro-benzamide]	9 µg/mL (≈ 16.1 µM)				6 µg/mL (≈ 10.7 µM)	4%	> 10 µg/mL			
Cc1cccc(NC(=S)Nc2ccc(NC(=O)c3ccccc3F)cc2)c1 [Example 432, 2-Fluoro-N-[4-(3-m-tolyl-thioureido)-phenyl]-benzamide]	1.6 µg/mL (≈ 4.22 µM)	10 µg/mL (≈ 26.4 µM)	0%	> 10 µg/mL						
CC(NC(=S)Nc1ccc(NC(=O)c2cc3ccccc3o2)cc1)c1cc2ccccc2o1 (centres unmarked) [Example 981, Benzofuran-2-carboxylic acid {4-[3-(1-benzofuran-2-yl-ethyl)-thioureido]-phenyl}-amide]	> 10 µg/mL				> 10 µg/mL		0.2 µg/mL (≈ 0.439 µM)			
O=C(Nc1ccc(NC(=S)Nc2ccc(Cl)c(C(F)(F)F)c2)cc1)c1ccccc1F [Example 244, N-{4-[3-(4-Chloro-3-trifluoromethyl-phenyl)-thioureido]-phenyl}-2-fluoro-benzamide]	> 10 µg/mL				> 10 µg/mL	18%	> 10 µg/mL			
COc1cc(OC)c(NC(=S)Nc2ccc(NC(=O)c3ccccc3Cl)cc2)cc1Cl [Example 141, 2-Chloro-N-{4-[3-(5-chloro-2,4-dimethoxy-phenyl)-thioureido]-phenyl}-benzamide]	0.25 µg/mL (≈ 0.525 µM)				6 µg/mL (≈ 12.6 µM)	40%	> 10 µg/mL			
O=C(Nc1ccc(NC(=S)Nc2ccc(SC3CCCCC3)c(Cl)c2)cc1)c1ccccc1F [Example 357, N-{4-[3-(3-Chloro-4-cyclohexylsulfanyl-phenyl)-thioureido]-phenyl}-2-fluoro-benzamide]	> 10 µg/mL				9 µg/mL (≈ 17.5 µM)	44%	40 µg/mL (≈ 77.8 µM)			
O=C(Nc1ccc(NC(=S)Nc2cccc(CO)c2)cc1)c1ccccc1F [Example 476, 2-Fluoro-N-{4-[3-(3-hydroxymethyl-phenyl)-thioureido]-phenyl}-benzamide]	10 µg/mL (≈ 25.3 µM)	> 10 µg/mL	21%	> 10 µg/mL						
O=C(Nc1ccc(NC(=S)Nc2ccccc2)cc1)c1ccccc1F [Example 859, 2-Fluoro-N-[4-(3-phenyl-thioureido)-phenyl]-benzamide]	> 10 µg/mL	> 10 µg/mL	20%	> 10 µg/mL						
COc1cc(OC)c(NC(=S)Nc2ccc(NC(=O)c3cccc(F)c3)cc2)cc1Cl [Example 117, N-{4-[3-(5-Chloro-2,4-dimethoxy-phenyl)-thioureido]-phenyl}-3-fluoro-benzamide]	0.3 µg/mL (≈ 0.652 µM)				3 µg/mL (≈ 6.52 µM)	15%	> 10 µg/mL			
CC(NC(=S)Nc1ccc(NC(=O)c2nccc3ccccc23)cc1)c1ccc(F)cc1 (centres unmarked) [Example 976, Isoquinoline-1-carboxylic acid (4-{3-[1-(4-fluoro-phenyl)-ethyl]-thioureido}-phenyl)-amide]								> 10 µg/mL	0.04 µg/mL (≈ 0.09 µM)	>10 µg/mL
COc1cc(OC)c(NC(=S)Nc2ccc(NC(=O)c3ccccc3F)cc2)cc1Br [Example 827, N-{4-[3-(5-Bromo-2,4-dimethoxy-phenyl)-thioureido]-phenyl}-2-fluoro-benzamide]	0.2 µg/mL (≈ 0.397 µM)				10 µg/mL (≈ 19.8 µM)	70%	3.5 µg/mL (≈ 6.94 µM)			
COc1cccc(C(=O)Nc2ccc(NC(=S)Nc3ccc(N(C)C4CCCCC4)c(Cl)c3)cc2)c1 [Example 250, N-(4-{3-[3-Chloro-4-(cyclohexyl-methyl-amino)-phenyl]-thioureido}-phenyl)-3-methoxy-benzamide]	> 10 µg/mL				> 10 µg/mL	42%	> 10 µg/mL			
O=C(Nc1ccc(NC(=S)NCCc2cccc(Cl)c2)cc1)c1ccccc1F [Example 563, N-(4-{3-[2-(3-Chloro-phenyl)-ethyl]-thioureido}-phenyl)-2-fluoro-benzamide]					> 0.5 µg/mL			> 10 µg/mL	9 µg/mL (≈ 21 µM)	
Cc1ccccc1C(=O)Nc1ccc(NC(=S)Nc2ccc(N(C)C3CCCCC3)c(Cl)c2)cc1 [Example 247, N-(4-{3-[3-Chloro-4-(cyclohexyl-methyl-amino)-phenyl]-thioureido}-phenyl)-2-methyl-benzamide]	> 10 µg/mL				> 10 µg/mL	74%	5 µg/mL (≈ 9.86 µM)			
O=C(CN1CCCCC1)Nc1ccc(NC(=S)Nc2ccc(NC(=O)c3ccccc3F)cc2)cc1Cl [Example 364, N-(4-{3-[3-Chloro-4-(2-piperidin-1-yl-acetylamino)-phenyl]-thioureido}-phenyl)-2-fluoro-benzamide]	> 10 µg/mL				> 10 µg/mL	73%	> 15 µg/mL			
